Measured values: PubChem BioAssay (NCI)
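Interpolation was linear, between the two tested concentrations surrounding the appropriate level; five concentrations were tested over 48 hours in 96-well plates. The concentration for full growth arrest is given as TGI.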

How the values were obtained:
Experiment in all cases: growth of human tumour cells (NCI), 48 h
HOP-62 NSCLC = system: HOP-62 NSCLC
HS 578T breast = system: HS 578T breast
SW-620 colon = system: SW-620 colon
SF-295 CNS = system: SF-295 CNS
SF-539 CNS = system: SF-539 CNS
HL-60(TB) leukemia = system: HL-60(TB) leukemia
UACC-257 melanoma = system: UACC-257 melanoma
UACC-62 melanoma = system: UACC-62 melanoma
KM12 colon = system: KM12 colon
SR leukemia = system: SR leukemia
BT-549 breast = system: BT-549 breast
SNB-19 CNS = system: SNB-19 CNS
NCI-H460 lung = system: NCI-H460 lung
RXF 393 renal = system: RXF 393 renal
TK-10 renal = system: TK-10 renal
NCI-H522 lung = system: NCI-H522 lung
OVCAR-4 ovarian = system: OVCAR-4 ovarian
CAKI-1 renal = system: CAKI-1 renal
MDA-N = system: MDA-N
SK-MEL-28 melanoma = system: SK-MEL-28 melanoma
K-562 leukemia = system: K-562 leukemia
SK-OV-3 ovarian = system: SK-OV-3 ovarian
OVCAR-3 ovarian = system: OVCAR-3 ovarian
MALME-3M melanoma = system: MALME-3M melanoma
MDA-MB-231 breast = system: MDA-MB-231 breast
HCT-116 colon = system: HCT-116 colon
NCI-H23 lung = system: NCI-H23 lung
ACHN renal = system: ACHN renal
MOLT-4 leukemia = system: MOLT-4 leukemia
786-0 renal = system: 786-0 renal
A498 renal = system: A498 renal
OVCAR-5 ovarian = system: OVCAR-5 ovarian
SK-MEL-2 melanoma = system: SK-MEL-2 melanoma
HCC-2998 colon = system: HCC-2998 colon
NCI-H226 lung = system: NCI-H226 lung
SNB-75 CNS = system: SNB-75 CNS
MDA-MB-435 = system: MDA-MB-435
A549 NSCLC = system: A549 NSCLC
SK-MEL-5 melanoma = system: SK-MEL-5 melanoma
MCF7 breast = system: MCF7 breast
T-47D breast = system: T-47D breast
HT29 colon = system: HT29 colon
UO-31 renal = system: UO-31 renal
HCT-15 colon = system: HCT-15 colon
DU-145 prostate = system: DU-145 prostate
CCRF-CEM leukemia = system: CCRF-CEM leukemia
COLO 205 colon = system: COLO 205 colon
SF-268 CNS = system: SF-268 CNS
NCI/ADR-RES ovarian = system: NCI/ADR-RES ovarian
OVCAR-8 ovarian = system: OVCAR-8 ovarian
IGROV1 ovarian = system: IGROV1 ovarian
SN12C renal = system: SN12C renal
HOP-92 NSCLC = system: HOP-92 NSCLC
LOX IMVI melanoma = system: LOX IMVI melanoma
EKVX NSCLC = system: EKVX NSCLC
RPMI-8226 leukemia = system: RPMI-8226 leukemia
PC-3 prostate = system: PC-3 prostate
U251 CNS = system: U251 CNS
M14 melanoma = system: M14 melanoma

`COc1ccc(C(=O)c2[nH]c(Nc3ccc(Cl)cc3)c(C(=S)Nc3ccccc3)c2N)cc1` gave a TGI (HOP-62 NSCLC) of over 100 µM, a TGI (HS 578T breast) of over 100 µM and a TGI (SW-620 colon) of over 100 µM. It also gave a TGI (SF-295 CNS) of over 100 µM, a TGI (SF-539 CNS) of over 100 µM and a TGI (HL-60(TB) leukemia) of over 100 µM. For the same compound, the TGI (UACC-257 melanoma) was over 100 µM, the TGI (UACC-62 melanoma) was over 100 µM and the TGI (KM12 colon) was over 100 µM. It also gave a TGI (SR leukemia) of over 100 µM, a TGI (BT-549 breast) of over 100 µM and a TGI (SNB-19 CNS) of over 100 µM. For the same compound, the TGI (NCI-H460 lung) was over 100 µM, the TGI (RXF 393 renal) was over 100 µM and the TGI (TK-10 renal) was over 100 µM. It also gave a TGI (NCI-H522 lung) of over 100 µM, a TGI (OVCAR-4 ovarian) of 93.6 µM and a TGI (CAKI-1 renal) of over 100 µM. It also gave a TGI (MDA-N) of over 100 µM, a TGI (SK-MEL-28 melanoma) of 87 µM and a TGI (K-562 leukemia) of over 100 µM. The TGI (SK-OV-3 ovarian) was over 100 µM, the TGI (OVCAR-3 ovarian) was over 100 µM and the TGI (MALME-3M melanoma) was over 100 µM. The TGI (MDA-MB-231 breast) was over 100 µM, the TGI (HCT-116 colon) was over 100 µM and the TGI (NCI-H23 lung) was over 100 µM. For the same compound, the TGI (ACHN renal) was over 100 µM, the TGI (MOLT-4 leukemia) was over 100 µM and the TGI (786-0 renal) was over 100 µM. The TGI (A498 renal) was over 100 µM, the TGI (OVCAR-5 ovarian) was over 100 µM and the TGI (SK-MEL-2 melanoma) was over 100 µM. For the same compound, the TGI (HCC-2998 colon) was over 100 µM, the TGI (NCI-H226 lung) was over 100 µM and the TGI (SNB-75 CNS) was over 100 µM. For the same compound, the TGI (MDA-MB-435) was over 100 µM, the TGI (A549 NSCLC) was over 100 µM and the TGI (SK-MEL-5 melanoma) was over 100 µM. The TGI (MCF7 breast) was over 100 µM, the TGI (T-47D breast) was over 100 µM and the TGI (HT29 colon) was over 100 µM. For the same compound, the TGI (UO-31 renal) was over 100 µM, the TGI (HCT-15 colon) was over 100 µM and the TGI (DU-145 prostate) was over 100 µM. For the same compound, the TGI (CCRF-CEM leukemia) was over 100 µM, the TGI (COLO 205 colon) was over 100 µM and the TGI (SF-268 CNS) was over 100 µM. For the same compound, the TGI (NCI/ADR-RES ovarian) was over 100 µM, the TGI (OVCAR-8 ovarian) was over 100 µM and the TGI (IGROV1 ovarian) was over 100 µM. The TGI (SN12C renal) was over 100 µM, the TGI (HOP-92 NSCLC) was over 100 µM and the TGI (LOX IMVI melanoma) was over 100 µM. The TGI (EKVX NSCLC) was over 100 µM.

With `CCNC1=C(NC(=O)CC)C(=O)c2ccccc2C1=O` the TGI (RPMI-8226 leukemia) was over 100 µM, the TGI (HOP-62 NSCLC) was over 100 µM and the TGI (HS 578T breast) was over 100 µM. It also gave a TGI (SW-620 colon) of over 100 µM, a TGI (SF-295 CNS) of over 100 µM and a TGI (PC-3 prostate) of over 100 µM. For the same compound, the TGI (SF-539 CNS) was over 100 µM, the TGI (HL-60(TB) leukemia) was over 100 µM and the TGI (UACC-257 melanoma) was over 100 µM. The TGI (UACC-62 melanoma) was over 100 µM, the TGI (KM12 colon) was over 100 µM and the TGI (SR leukemia) was over 100 µM. It also gave a TGI (BT-549 breast) of over 100 µM, a TGI (SNB-19 CNS) of over 100 µM and a TGI (NCI-H460 lung) of over 100 µM. For the same compound, the TGI (U251 CNS) was over 100 µM, the TGI (RXF 393 renal) was over 100 µM and the TGI (TK-10 renal) was over 100 µM. It also gave a TGI (NCI-H522 lung) of over 100 µM, a TGI (OVCAR-4 ovarian) of over 100 µM and a TGI (MDA-N) of over 100 µM. For the same compound, the TGI (SK-MEL-28 melanoma) was over 100 µM, the TGI (K-562 leukemia) was over 100 µM and the TGI (SK-OV-3 ovarian) was over 100 µM. For the same compound, the TGI (OVCAR-3 ovarian) was over 100 µM, the TGI (MALME-3M melanoma) was 60.1 µM and the TGI (MDA-MB-231 breast) was over 100 µM. For the same compound, the TGI (HCT-116 colon) was over 100 µM, the TGI (NCI-H23 lung) was over 100 µM and the TGI (ACHN renal) was over 100 µM. It also gave a TGI (MOLT-4 leukemia) of over 100 µM, a TGI (786-0 renal) of over 100 µM and a TGI (OVCAR-5 ovarian) of over 100 µM. For the same compound, the TGI (HCC-2998 colon) was over 100 µM, the TGI (NCI-H226 lung) was over 100 µM and the TGI (SNB-75 CNS) was over 100 µM. For the same compound, the TGI (A549 NSCLC) was over 100 µM, the TGI (SK-MEL-5 melanoma) was over 100 µM and the TGI (MCF7 breast) was over 100 µM. It also gave a TGI (T-47D breast) of over 100 µM, a TGI (HT29 colon) of over 100 µM and a TGI (HCT-15 colon) of over 100 µM. It also gave a TGI (DU-145 prostate) of over 100 µM, a TGI (CCRF-CEM leukemia) of over 100 µM and a TGI (COLO 205 colon) of over 100 µM. The TGI (SF-268 CNS) was over 100 µM, the TGI (NCI/ADR-RES ovarian) was over 100 µM and the TGI (OVCAR-8 ovarian) was over 100 µM. The TGI (IGROV1 ovarian) was over 100 µM, the TGI (SN12C renal) was over 100 µM and the TGI (HOP-92 NSCLC) was over 100 µM. The TGI (EKVX NSCLC) was over 100 µM and the TGI (M14 melanoma) was 98.5 µM.
